What was measured:
Serotoninergic 5-HT2C = Serotoninergic 5-HT2C (Homo sapiens, UniProt P28335); experiment: CNS receptor binding assay; conditions: read-out: % Inhibition of control specific binding
Serotoninergic 5-HT3 = Serotoninergic 5-HT3 (Homo sapiens, UniProt P46098); experiment: CNS receptor binding assay; conditions: read-out: % Inhibition of control specific binding
[1] = biological target: Muscarinic (Cholinergic) M3 (Homo sapiens, UniProt P20309); experiment: CNS receptor binding assay; conditions: [3H] 4-DAMP, Human recombinant (CHO cells), read-out: % Inhibition of control specific binding
Noradrenergic β2 = Noradrenergic β2 (Homo sapiens, UniProt P07550); experiment: CNS receptor binding assay; conditions: read-out: % Inhibition of control specific binding
Sequence of Noradrenergic β2 (P07550 whole entry): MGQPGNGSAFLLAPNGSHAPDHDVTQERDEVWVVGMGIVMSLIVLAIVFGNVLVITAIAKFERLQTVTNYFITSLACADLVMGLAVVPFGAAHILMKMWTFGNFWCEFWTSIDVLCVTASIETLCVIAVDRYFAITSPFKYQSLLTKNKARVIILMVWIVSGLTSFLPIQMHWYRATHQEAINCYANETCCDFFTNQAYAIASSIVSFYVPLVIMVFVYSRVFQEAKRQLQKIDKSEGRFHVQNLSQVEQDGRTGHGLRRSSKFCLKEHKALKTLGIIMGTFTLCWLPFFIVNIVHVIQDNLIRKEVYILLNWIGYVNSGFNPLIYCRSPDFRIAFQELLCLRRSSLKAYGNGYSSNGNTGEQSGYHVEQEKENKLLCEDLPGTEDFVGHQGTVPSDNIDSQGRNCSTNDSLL

[2] = biological target: Muscarinic (Cholinergic) M5 (Homo sapiens, UniProt P08912); experiment: CNS receptor binding assay; conditions: [3H] 4-DAMP, Human recombinant (CHO cells), read-out: % Inhibition of control specific binding
[3] = biological target: Muscarinic (Cholinergic) M4 (Homo sapiens, UniProt P08173); experiment: CNS receptor binding assay; conditions: [3H] 4-DAMP, Human recombinant (CHO cells), read-out: % Inhibition of control specific binding
Oppioid μ = Oppioid μ (Homo sapiens, UniProt P35372); experiment: CNS receptor binding assay; conditions: [3H] DAMGO, Human recombinant (HEK-293 cells), read-out: % Inhibition of control specific binding
[4] = test system: alcohol self-administration; experiment: Operant alcohol self-administration in ethanol dependent and non-dependent rats; assay type: in vivo, Wistar rats
Protocol: Alcohol self-administration in ethanol dependent and non-dependent animals is a well-known and well-characterized animal model for analysis of alcoholism behaviors (Roberts et al. 1999, 2000; Rimondini et al. 2002; O'Dell et al. 2004; Richardson et al. 2008; Gilpin et al. 2009).
Adult male Wistar rats (Charles River, Raleigh, N.C.), weighing 225-275 g at the beginning of the experiments, were housed in groups of 2-3 per cage in a temperature-controlled (22° C.) vivarium on a 12 h/12 h light/dark cycle (lights on at 8:00 PM) with ad libitum access to food and water. All behavioral tests were conducted during the dark phase of the light/dark cycle. All procedures adhered to the National Institutes of Health Guide for the Care and Use of Laboratory Animals and were approved by the Institutional Animal Care and Use Committee of The Scripps Research Institute.
Self-administration sessions were conducted in standard operant conditioning chambers (Med Associates, St. Albans, Vt.). Animals were first trained to self-administer 10% (w/v) ethanol and water solutions until a stable response was maintained. The rats were subjected to an overnight session in the operant chambers with access to one lever (right lever) that delivered water (FR1). Food was available ad libitum during this training. After 1 day off, the rats were subjected to a 2 h session (FR1) for 1 day and a 1 h session (FR1) the next day, with one lever delivering alcohol (right lever). All of the subsequent sessions lasted 30 min, and two levers were available (left lever: water; right lever: alcohol) until stable levels of intake were reached. Upon completion of this procedure, the animals were allowed to self-administer a 10% (w/v) alcohol solution and water on an FR1 schedule of reinforcement (i.e., each operant response was reinforced with 0.1 ml of the solution).
Once a stable baseline of alcohol self-administration was reached, the rats were made dependent by chronic, intermittent exposure to alcohol vapors. […]
Data were analyzed by appropriate mixed factorial ANOVA, followed Newman Keuls post hoc tests

Histaminergic H1 = Histaminergic H1 (Homo sapiens, UniProt P35367); experiment: CNS receptor binding assay; conditions: read-out: % Inhibition of control specific binding
Sequence of Histaminergic H1 (P35367 whole entry): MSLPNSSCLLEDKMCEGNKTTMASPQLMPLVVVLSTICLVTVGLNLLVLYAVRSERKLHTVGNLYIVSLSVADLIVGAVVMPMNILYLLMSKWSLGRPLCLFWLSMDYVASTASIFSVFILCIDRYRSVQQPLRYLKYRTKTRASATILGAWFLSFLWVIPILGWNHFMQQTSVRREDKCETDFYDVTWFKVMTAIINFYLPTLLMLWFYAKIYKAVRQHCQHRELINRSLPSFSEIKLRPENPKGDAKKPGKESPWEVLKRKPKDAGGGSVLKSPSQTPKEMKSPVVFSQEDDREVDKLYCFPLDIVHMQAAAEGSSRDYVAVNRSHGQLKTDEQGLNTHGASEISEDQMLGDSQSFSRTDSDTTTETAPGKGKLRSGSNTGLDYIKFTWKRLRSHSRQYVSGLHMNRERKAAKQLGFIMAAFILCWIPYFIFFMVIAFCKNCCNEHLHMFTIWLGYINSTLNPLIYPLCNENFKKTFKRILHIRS

[5] = biological target: Muscarinic (Cholinergic) M2 (Homo sapiens, UniProt P08172); experiment: CNS receptor binding assay; conditions: [3H] AF-DX 384, Human recombinant (CHO cells), read-out: % Inhibition of control specific binding
Serotoninergic 5-HT1A = Serotoninergic 5-HT1A (Homo sapiens, UniProt P08908); experiment: CNS receptor binding assay; conditions: read-out: % Inhibition of control specific binding
Sequence of Serotoninergic 5-HT1A (P08908 whole entry): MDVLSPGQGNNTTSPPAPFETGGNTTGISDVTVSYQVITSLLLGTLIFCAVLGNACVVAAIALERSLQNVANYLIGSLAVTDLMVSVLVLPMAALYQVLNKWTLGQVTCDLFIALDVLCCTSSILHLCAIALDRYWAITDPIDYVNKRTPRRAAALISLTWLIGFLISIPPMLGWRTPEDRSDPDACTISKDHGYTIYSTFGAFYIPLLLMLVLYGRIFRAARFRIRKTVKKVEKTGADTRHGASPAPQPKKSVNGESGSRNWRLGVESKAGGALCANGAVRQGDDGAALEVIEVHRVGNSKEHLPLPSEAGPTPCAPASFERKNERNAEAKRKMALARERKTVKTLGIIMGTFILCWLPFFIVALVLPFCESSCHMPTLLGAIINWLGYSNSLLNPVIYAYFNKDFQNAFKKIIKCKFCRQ

[6] = biological target: Noradrenergic Transporter (Homo sapiens, UniProt P23975); experiment: CNS receptor binding assay; conditions: [3H] nisoxetine, Human recombinant (CHO cells), read-out: % Inhibition of control specific binding
Sequence of Noradrenergic Transporter (P23975 whole entry): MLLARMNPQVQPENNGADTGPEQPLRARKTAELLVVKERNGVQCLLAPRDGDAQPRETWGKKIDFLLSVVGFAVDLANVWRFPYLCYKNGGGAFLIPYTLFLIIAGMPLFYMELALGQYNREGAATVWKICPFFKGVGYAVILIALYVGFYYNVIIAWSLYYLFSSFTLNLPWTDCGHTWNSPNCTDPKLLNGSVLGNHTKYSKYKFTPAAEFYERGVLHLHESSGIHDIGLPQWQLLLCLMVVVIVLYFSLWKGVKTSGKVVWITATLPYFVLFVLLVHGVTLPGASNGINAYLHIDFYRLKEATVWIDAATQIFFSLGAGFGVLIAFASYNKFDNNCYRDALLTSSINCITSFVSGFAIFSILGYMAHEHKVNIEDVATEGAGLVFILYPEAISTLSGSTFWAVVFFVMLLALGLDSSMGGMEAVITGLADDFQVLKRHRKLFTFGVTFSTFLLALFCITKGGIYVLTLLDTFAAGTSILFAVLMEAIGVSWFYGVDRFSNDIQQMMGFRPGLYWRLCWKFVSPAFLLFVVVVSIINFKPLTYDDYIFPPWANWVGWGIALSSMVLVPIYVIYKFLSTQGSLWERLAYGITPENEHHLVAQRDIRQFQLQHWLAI

Cannabinoid CB1 = Cannabinoid CB1 (Homo sapiens, UniProt P21554); experiment: CNS receptor binding assay; conditions: [3H] CP55940, Human recombinant (CHO cells), read-out: % Inhibition of control specific binding
Sequence of Cannabinoid CB1 (P21554 whole entry): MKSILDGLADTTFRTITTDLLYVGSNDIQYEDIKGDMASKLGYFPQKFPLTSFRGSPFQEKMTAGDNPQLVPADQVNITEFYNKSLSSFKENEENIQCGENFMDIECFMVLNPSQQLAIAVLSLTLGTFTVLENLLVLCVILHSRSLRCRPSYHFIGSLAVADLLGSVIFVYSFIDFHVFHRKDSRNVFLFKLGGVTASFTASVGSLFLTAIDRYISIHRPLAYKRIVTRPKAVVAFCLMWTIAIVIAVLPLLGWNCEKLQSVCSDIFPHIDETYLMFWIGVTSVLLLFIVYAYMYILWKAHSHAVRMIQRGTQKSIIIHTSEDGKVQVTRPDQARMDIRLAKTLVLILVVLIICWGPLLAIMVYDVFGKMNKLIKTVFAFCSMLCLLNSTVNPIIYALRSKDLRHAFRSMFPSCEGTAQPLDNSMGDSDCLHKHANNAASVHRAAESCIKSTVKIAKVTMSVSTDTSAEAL

[7] = biological target: Muscarinic (Cholinergic) M1 (Homo sapiens, UniProt P11229); experiment: CNS receptor binding assay; conditions: [3H] pirenzepine, Human recombinant (CHO cells), read-out: % Inhibition of control specific binding
Sequence of Muscarinic (Cholinergic) M1 (P11229 whole entry): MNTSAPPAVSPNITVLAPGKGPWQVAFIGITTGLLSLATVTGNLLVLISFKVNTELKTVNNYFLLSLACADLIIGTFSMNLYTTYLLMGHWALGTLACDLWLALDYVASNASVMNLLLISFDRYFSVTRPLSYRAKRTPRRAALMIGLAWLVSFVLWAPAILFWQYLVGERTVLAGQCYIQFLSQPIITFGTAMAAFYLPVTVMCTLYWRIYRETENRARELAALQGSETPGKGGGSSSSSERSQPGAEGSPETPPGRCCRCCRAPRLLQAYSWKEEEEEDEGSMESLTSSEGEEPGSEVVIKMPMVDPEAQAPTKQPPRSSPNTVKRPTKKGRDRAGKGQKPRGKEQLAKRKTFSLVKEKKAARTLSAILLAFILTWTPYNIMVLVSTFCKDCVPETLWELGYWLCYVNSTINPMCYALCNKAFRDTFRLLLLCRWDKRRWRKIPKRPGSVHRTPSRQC

Dopaminergic D2S = Dopaminergic D2S (Homo sapiens, UniProt P14416); experiment: CNS receptor binding assay; conditions: read-out: % Inhibition of control specific binding
Sequence of Dopaminergic D2S (P14416 1-414 isoform P14416-2): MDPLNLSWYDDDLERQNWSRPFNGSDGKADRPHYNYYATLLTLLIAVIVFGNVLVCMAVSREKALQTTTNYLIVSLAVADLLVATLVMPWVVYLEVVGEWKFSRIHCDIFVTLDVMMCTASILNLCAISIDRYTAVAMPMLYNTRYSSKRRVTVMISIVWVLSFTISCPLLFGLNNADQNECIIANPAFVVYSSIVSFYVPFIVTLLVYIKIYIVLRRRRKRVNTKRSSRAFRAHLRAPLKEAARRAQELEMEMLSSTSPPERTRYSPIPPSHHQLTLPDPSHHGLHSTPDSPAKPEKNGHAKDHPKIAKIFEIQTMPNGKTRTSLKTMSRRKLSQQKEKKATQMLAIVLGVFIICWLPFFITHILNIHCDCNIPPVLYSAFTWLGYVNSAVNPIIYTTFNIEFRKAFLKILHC

GABA (non-selective) = experiment: CNS receptor binding assay; conditions: 10 μM; [3H] GABA; rat cerebral cortex
Dopaminergic D4.4 = Dopaminergic D4.4 (Homo sapiens, UniProt P21917); experiment: CNS receptor binding assay; conditions: read-out: % Inhibition of control specific binding
Sequence of Dopaminergic D4.4 (P21917 whole entry): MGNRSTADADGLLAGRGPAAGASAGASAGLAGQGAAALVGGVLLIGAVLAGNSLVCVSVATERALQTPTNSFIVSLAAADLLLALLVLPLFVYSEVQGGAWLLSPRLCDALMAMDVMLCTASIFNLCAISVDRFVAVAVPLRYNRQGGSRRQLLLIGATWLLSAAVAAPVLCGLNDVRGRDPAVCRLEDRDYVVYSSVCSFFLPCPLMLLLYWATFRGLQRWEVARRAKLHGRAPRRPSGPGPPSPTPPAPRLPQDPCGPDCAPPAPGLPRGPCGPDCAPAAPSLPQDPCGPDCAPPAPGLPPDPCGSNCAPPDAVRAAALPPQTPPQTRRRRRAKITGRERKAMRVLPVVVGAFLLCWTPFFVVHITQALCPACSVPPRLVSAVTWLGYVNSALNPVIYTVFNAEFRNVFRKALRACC

Oppioid κ = Oppioid κ (Rattus norvegicus, UniProt P34975); experiment: CNS receptor binding assay; conditions: [3H] U 69593, rat recombinant (CHO cells), read-out: % Inhibition of control specific binding
Sequence of Oppioid κ (P34975 whole entry): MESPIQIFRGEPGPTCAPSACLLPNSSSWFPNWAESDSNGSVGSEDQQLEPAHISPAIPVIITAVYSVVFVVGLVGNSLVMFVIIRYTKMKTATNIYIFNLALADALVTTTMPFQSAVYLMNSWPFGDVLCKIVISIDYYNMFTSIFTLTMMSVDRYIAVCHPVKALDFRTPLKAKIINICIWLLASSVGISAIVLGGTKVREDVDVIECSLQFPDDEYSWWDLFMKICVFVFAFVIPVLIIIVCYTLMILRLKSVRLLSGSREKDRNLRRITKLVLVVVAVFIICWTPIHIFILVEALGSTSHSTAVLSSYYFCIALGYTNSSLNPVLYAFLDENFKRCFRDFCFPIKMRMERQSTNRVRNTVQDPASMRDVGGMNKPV

Histaminergic H2 = Histaminergic H2 (Homo sapiens, UniProt P25021); experiment: CNS receptor binding assay; conditions: read-out: % Inhibition of control specific binding
Sequence of Histaminergic H2 (P25021 whole entry): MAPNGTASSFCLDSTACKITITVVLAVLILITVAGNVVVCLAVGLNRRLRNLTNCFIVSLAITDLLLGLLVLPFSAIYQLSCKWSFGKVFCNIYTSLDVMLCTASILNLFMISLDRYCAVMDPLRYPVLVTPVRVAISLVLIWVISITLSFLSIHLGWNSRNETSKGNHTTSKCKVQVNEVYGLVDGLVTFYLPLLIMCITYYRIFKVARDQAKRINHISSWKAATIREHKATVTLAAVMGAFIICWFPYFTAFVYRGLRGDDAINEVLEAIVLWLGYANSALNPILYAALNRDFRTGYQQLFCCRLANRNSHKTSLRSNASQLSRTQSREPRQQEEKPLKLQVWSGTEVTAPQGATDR

Dopaminergic D5 = Dopaminergic D5 (Homo sapiens, UniProt P21918); experiment: CNS receptor binding assay; conditions: read-out: % Inhibition of control specific binding

Sequence of Serotoninergic 5-HT3 (P46098 24-478): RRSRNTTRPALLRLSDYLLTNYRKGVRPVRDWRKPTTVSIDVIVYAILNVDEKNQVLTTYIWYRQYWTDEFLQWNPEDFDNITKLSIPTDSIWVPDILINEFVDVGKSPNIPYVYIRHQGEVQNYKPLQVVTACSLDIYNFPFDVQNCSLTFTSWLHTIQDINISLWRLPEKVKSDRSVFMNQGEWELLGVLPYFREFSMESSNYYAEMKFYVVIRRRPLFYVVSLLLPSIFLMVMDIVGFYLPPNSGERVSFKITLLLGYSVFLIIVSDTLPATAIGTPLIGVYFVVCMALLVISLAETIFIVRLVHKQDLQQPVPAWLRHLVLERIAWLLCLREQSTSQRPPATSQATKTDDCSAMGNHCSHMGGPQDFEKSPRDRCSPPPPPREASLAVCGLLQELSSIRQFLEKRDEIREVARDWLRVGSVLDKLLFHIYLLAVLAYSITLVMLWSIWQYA

Work on `CO[C@H]1CC[C@@]2(C)C(=CC[C@H]3[C@@H]4CC[C@H](C(C)=O)[C@@]4(C)CC[C@@H]32)C1` [MAP4343, 3β-methoxy-pregna-5-ene-20-one] yielded an inhibition at 10 µM (Serotoninergic 5-HT2C) of 7%, an inhibition at 10 µM (Serotoninergic 5-HT3) of 10% and an inhibition at 10 µM [1] of 3%. The inhibition at 10 µM (Noradrenergic β2) was -4%, the inhibition at 10 µM [2] was 12% and the inhibition at 10 µM [3] was 20%. For the same molecule, the inhibition at 10 µM (Oppioid μ) was 0%, the “operant responding for alcohol (alcohol reinforced responses)” value ([4]; dependent (vapor) rats, 10 mg/kg sub-cutaneously in sesame oil 24 hours before each test session, p<0.05 from test session 8) was “significantly reduce operant responding for alcohol selectively in the dependent animals” and the “time of treatment until efficacy was apparent” value ([4]; dependent rats, 10 mg/kg sub-cutaneously) was about 10 days. The “reduction of excessive alcohol drinking” value ([4]; non-dependent (air) rats, 10 mg/kg sub-cutaneously 24 hours before each test session) was “not in non-dependent rats”, the inhibition at 10 µM (Histaminergic H1) was 9% and the inhibition at 10 µM [5] was 20%. The inhibition at 10 µM (Serotoninergic 5-HT1A) was 2%, the inhibition at 10 µM [6] was 3% and the inhibition at 10 µM (Cannabinoid CB1) was 12%. The inhibition at 10 µM [7] was -3%, the inhibition at 10 µM (Dopaminergic D2S) was 6% and the “% Inhibition of control specific binding” value (GABA (non-selective)) was 2%. It also gave an inhibition at 10 µM (Dopaminergic D4.4) of 6%, an inhibition at 10 µM (Oppioid κ) of 19% and an inhibition at 10 µM (Histaminergic H2) of -21%. The inhibition at 10 µM (Dopaminergic D5) was -7%.

From US20210322443A1 (MAPREG, priority 2015, published 2021)
